One assay deals with recombinant human S1PR1 (Homo sapiens, UniProt P21453). Description: [32P]S1P competitive binding assay, S1PR1. Particulars: for fold decrease of S1PR1 binding potency compared to 10a: ratio of IC50 values versus 10a.
A further assay has as its target recombinant human S1PR5 (Homo sapiens, UniProt Q9H228). Description: [32P]S1P competitive binding assay, S1PR5. Conditions: read-out: IC50 S1PR5; competition against [32P]S1P, recombinant human S1PR5 membranes; mean ± SD.
The target of another assay is T1, recombinant human S1PR4 (Homo sapiens, UniProt O95977).
T1 sequence (O95977 1-384): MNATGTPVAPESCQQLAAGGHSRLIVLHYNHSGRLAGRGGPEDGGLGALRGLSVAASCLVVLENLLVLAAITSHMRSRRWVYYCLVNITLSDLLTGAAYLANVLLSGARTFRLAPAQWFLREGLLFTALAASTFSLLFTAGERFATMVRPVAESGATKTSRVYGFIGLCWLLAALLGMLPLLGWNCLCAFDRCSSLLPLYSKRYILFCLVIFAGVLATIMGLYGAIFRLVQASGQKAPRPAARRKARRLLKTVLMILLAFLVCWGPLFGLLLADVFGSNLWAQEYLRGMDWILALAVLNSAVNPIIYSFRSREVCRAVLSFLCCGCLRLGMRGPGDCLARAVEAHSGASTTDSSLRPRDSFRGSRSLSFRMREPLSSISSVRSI
Description: [32P]S1P competitive binding assay, S1PR4. Particulars: read-out: IC50 S1PR4; competition against [32P]S1P, recombinant human S1PR4 membranes; mean ± SD.

Another assay deals with recombinant human S1PR2 (Homo sapiens, UniProt O95136). Description: [32P]S1P competitive binding assay, S1PR2.
Chain of recombinant human S1PR2 (O95136 whole entry): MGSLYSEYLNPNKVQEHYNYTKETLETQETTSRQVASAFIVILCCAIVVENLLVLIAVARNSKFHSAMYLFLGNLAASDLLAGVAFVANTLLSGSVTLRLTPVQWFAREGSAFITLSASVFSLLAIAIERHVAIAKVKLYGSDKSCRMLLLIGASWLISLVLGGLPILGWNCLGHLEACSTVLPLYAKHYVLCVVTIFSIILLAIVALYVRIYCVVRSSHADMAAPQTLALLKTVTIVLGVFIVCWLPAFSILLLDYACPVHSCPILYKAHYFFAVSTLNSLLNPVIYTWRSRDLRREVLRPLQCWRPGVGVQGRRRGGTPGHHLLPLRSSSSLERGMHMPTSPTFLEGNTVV
A further assay concerns the target recombinant human S1PR3 (Homo sapiens, UniProt Q99500). Put plainly: [32P]S1P competitive binding assay, S1PR3.
Where [1] appears, read: read-out: IC50 S1PR1, competition against [32P]S1P, cell membranes expressing recombinant human S1PR1, mean ± SD, at least 3 independent experiments in duplicate.

Consider twelve molecules from PMC6561338 (Organic & biomolecular chemistry, 2018).

Read-outs that look alike come from different tables or passages of the source. Where only a bound is given, the exact number is not on record here.

A word on the IC50: it is the concentration that gives 50% inhibition.

Chain of recombinant human S1PR3 (Q99500 whole entry): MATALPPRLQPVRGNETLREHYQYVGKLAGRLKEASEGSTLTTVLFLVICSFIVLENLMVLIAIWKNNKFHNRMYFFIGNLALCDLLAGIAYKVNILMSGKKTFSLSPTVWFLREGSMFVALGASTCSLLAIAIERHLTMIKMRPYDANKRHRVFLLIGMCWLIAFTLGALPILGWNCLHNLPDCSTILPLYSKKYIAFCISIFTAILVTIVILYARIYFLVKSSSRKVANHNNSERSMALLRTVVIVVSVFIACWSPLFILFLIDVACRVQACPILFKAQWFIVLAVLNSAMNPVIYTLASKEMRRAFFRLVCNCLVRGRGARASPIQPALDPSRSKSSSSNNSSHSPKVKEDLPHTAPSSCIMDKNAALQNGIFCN
Chain of recombinant human S1PR1 (P21453 whole entry): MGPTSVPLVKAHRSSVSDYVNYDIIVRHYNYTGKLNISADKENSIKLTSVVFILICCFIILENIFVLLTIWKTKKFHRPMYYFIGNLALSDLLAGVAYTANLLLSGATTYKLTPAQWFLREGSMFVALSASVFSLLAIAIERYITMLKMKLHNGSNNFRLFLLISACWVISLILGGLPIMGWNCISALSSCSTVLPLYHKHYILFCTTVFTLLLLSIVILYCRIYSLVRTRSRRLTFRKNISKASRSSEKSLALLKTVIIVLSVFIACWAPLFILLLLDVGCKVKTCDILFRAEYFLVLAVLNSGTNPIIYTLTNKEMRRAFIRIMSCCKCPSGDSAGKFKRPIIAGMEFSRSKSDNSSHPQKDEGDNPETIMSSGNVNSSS
Chain of recombinant human S1PR5 (Q9H228 whole entry): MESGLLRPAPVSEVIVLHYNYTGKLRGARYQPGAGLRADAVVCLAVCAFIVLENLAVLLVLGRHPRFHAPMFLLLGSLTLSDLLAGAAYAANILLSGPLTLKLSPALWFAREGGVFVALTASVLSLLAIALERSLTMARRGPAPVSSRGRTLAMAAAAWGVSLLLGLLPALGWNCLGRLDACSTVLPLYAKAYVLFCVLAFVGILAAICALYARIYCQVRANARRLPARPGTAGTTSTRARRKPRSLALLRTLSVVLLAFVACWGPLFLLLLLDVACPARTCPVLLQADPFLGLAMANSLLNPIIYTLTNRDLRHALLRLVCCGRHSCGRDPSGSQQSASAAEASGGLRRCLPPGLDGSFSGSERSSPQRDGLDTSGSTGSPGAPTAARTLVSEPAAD

`CN(Cc1ccc(-c2noc(-c3ccc(OCCF)c(C(F)(F)F)c3)n2)cc1)CC(O)CO` (racemic) [(±)-13a, (±)-3-((4-(5-(4-(2-Fluoroethoxy)-3-(trifluoromethyl)phenyl)-1,2,4-oxadiazol-3-yl)benzyl)(methyl)amino)propane-1,2-diol]: at recombinant human S1PR1 (setting [1]), the IC50 was determined as 39.9 nM.
Consider `OCC(O)COCc1ccc(-c2noc(-c3ccc(OCCF)c(C(F)(F)F)c3)n2)cc1` (racemic) [(±)-20b, (±)-3-((4-(5-(4-(2-Fluoroethoxy)-3-(trifluoromethyl)phenyl)-1,2,4-oxadiazol-3-yl)benzyl)oxy)propane-1,2-diol], for which the IC50 on recombinant human S1PR1 (setting [1]) turned out to be 23.8 nM.
Turning to `OCC(O)c1ccc(-c2noc(-c3ccc(OCCF)c(C(F)(F)F)c3)n2)cc1` (racemic) [(±)-24, (±)-1-(4-(5-(4-(2-Fluoroethoxy)-3-(trifluoromethyl)phenyl)-1,2,4-oxadiazol-3-yl)phenyl)ethane-1,2-diol], the IC50 at recombinant human S1PR5 is more than 1000 nM; on recombinant human S1PR4, more than 1000 nM; at recombinant human S1PR2 (read-out: IC50 S1PR2, competition against [32P]S1P, recombinant human S1PR2 membranes, mean ± SD) it was more than 1000 nM; at recombinant human S1PR1 (setting [1]) it was less than 20 nM; at recombinant human S1PR3 (read-out: IC50 S1PR3, competition against [32P]S1P, recombinant human S1PR3 membranes, mean ± SD), more than 1000 nM.
As to `OCc1ccc(-c2noc(-c3ccc(OCCF)c(C(F)(F)F)c3)n2)cc1` [10a, (4-(5-(4-(2-Fluoroethoxy)-3-(trifluoromethyl)phenyl)-1,2,4-oxadiazol-3-yl)phenyl)methanol], the half-maximal inhibitory concentration (IC50) at recombinant human S1PR2 and at recombinant human S1PR3 was more than 1000 nM each time.
For the molecule `N#Cc1cc(-c2nc(-c3ccc(CO)cc3)no2)ccc1OCCF` [10b, 2-(2-Fluoroethoxy)-5-(3-(4-(hydroxymethyl)phenyl)-1,2,4-oxadiazol-5-yl)benzonitrile], on recombinant human S1PR1, the “fold decrease of S1PR1 binding potency compared to 10a” value was determined as 2.3 fold.
Take `OCc1ccc(-c2noc(-c3ccc(OCCF)cc3)n2)cc1` [10c, (4-(5-(4-(2-Fluoroethoxy)phenyl)-1,2,4-oxadiazol-3-yl)-phenyl)-methanol]: the IC50 at recombinant human S1PR1 is more than 1000 nM.
In the case of `CN(CCO)Cc1ccc(-c2noc(-c3ccc(OCCF)c(C(F)(F)F)c3)n2)cc1` [13b, 2-((4-(5-(4-(2-Fluoroethoxy)-3-(trifluoromethyl)phenyl)-1,2,4-oxadiazol-3-yl)benzyl)(methyl)amino)ethan-1-ol], the half-inhibitory concentration (IC50) on recombinant human S1PR1 worked out at 38 nM.
On the same count and under the same terms, with `OCCNCc1ccc(-c2noc(-c3ccc(OCCF)c(C(F)(F)F)c3)n2)cc1` [13d, 2-((4-(5-(4-(2-Fluoroethoxy)-3-(trifluoromethyl)phenyl)-1,2,4-oxadiazol-3-yl)benzyl)amino)ethan-1-ol] the figure was 48.2 nM.
Consider `OCCOCc1ccc(-c2noc(-c3ccc(OCCF)c(C(F)(F)F)c3)n2)cc1` [17a, 2-((4-(5-(4-(2-Fluoroethoxy)-3-(trifluoromethyl)phenyl)-1,2,4-oxadiazol-3-yl)benzyl)oxy)ethan-1-ol], for which the IC50 at recombinant human S1PR2 and at recombinant human S1PR3 was more than 1000 nM in each case.
On to `OCCOCCOCc1ccc(-c2noc(-c3ccc(OCCF)c(C(F)(F)F)c3)n2)cc1` [17b, 2-(2-((4-(5-(4-(2-Fluoroethoxy)-3-(trifluoromethyl)phenyl)-1,2,4-oxadiazol-3-yl)benzyl)oxy)ethoxy)ethan-1-ol], for which the IC50 at recombinant human S1PR2 and on recombinant human S1PR3 was more than 1000 nM in each case.
Regarding `OCCOCCOCCOCc1ccc(-c2noc(-c3ccc(OCCF)c(C(F)(F)F)c3)n2)cc1` [17c, 2-(2-(2-((4-(5-(4-(2-Fluoroethoxy)-3-(trifluoromethyl)phenyl)-1,2,4-oxadiazol-3-yl)benzyl)oxy)ethoxy)ethoxy)ethan-1-ol], the “fold decrease of S1PR1 binding potency compared to 10a” value on recombinant human S1PR1 is “approximately 16 fold”.
Consider `OCCOc1ccc(-c2noc(-c3ccc(OCCF)c(C(F)(F)F)c3)n2)cc1` [20a, 2-(4-(5-(4-(2-Fluoroethoxy)-3-(trifluoromethyl)phenyl)-1,2,4-oxadiazol-3-yl)phenoxy)ethan-1-ol], for which, on recombinant human S1PR1, the IC50 was found to be 56.6 nM.
